Data: patent publication US20090105206A1, “Copper Melphalan And Copper Tegafur As Anti-Tumor Agents” (priority 2004, published 2009)
“And” between values parts separate entries of the source, which are not always exact repeats. Equal values may be shown once.

Tests used:
[1] = test system: OVCAR-3/P19 tumor cells; assay: Example 6: NOD/SCID mice s.c. injected with OVCAR-3 tumor cells; format: in vivo, female NOD/SCID mice
Experimental: 2×10^6 OVCAR-3/P19 tumor cells were s.c. injected into female NOD/SCID mice. The mice were treated as follows.
The treatment began with a mean tumor volume of 80 mm^3.
To level possible differences in tumor volume at the start of treatment in the individual groups and to make evident differences owing to the low absolute volumes in the treatment groups, the relative tumor volumes (RTV) have been analyzed. The relative tumor volume results from the ratio of the volume on day x and the tumor volume at the start of treatment in the same test animal. […] The tumor growth was stopped in group 2 after just 7 days. After 3 days of constant tumor volume a tumor regression began from day 30 (10th day of treatment) in the test animals treated with copper-melphalan.

[2] = test system: murine renal cell carcinoma (RENCA) tumor cells applied orthotopically; assay: Example 4: orthotopic renal cell carcinoma model (RENCA), treatment Day 1-7; primary tumor, metastases, vessel density (anti-CD31); format: in vivo, Balb/c mouse; conditions: for Kidney weight / Lung weight / Number of intestinal lymph node metastases / Number of lung metastases: day 19; for Kidney weight / Lung weight / Number of intestinal lymph node metastases / Number of lung metastases / Kidney volume: individual animals; for Kidney volume: test ended day 19
Experimental: The tests were carried out on a murine renal cell carcinoma model (RENCA) of the Balb/c mouse. The tumor cells were applied orthotopically into the left-hand renal capsule of syngenic mice. The effect of the treatment carried out on a primary tumor (in the implanted kidney), metastases (predominantly in the lungs, spleen and intestinal lymph nodes) and vessel density were investigated.
After anesthesia by means of isoflurane narcosis (O2— flow approx. 2.0 l with 0.5-1.5% isoflurane) a small incision was made in the mouse's left flank. The kidney was prepared and presented free from the peritoneum. A 27 G needle was introduced via the lower kidney pole through to below the renal capsule with visual inspection, and […] in 70 μl aliquots respectively applied once. The occurrence of a visible liquid-filled blister between kidney parenchyma and renal capsule and the discoloration of the kidneys were regarded as criteria for successful application. The kidney was subsequently reset and the incision into the abdominal wall closed by means of fascia stitches and cutaneous stitches with absorbable stitching material. Five test groups with ten animals respectively were formed. Group 1 negative control, group 2 positive control melphalan (Glaxo), group 3 and 4 MOC melphalan 2.5 mg/kg and 5 mg/kg. In the case of group 5 an antiangiogenically effective substance was applied as the positive control. The start of treatment was fixed for day 1 post op. for Cu(melphalan)2. Treatment was carried out daily up to day seven (see treatment model). The test was ended after 19 days since, owing to their size, the control tumors required termination for ethical reasons.
• The implantation day was counted as day 0. • Duration of the test 19 days. • Number of animals at beginning of test 50, no animals died during the op.
After selecting the animals the tissues to be examined were quickly transferred into liquid nitrogen and then frozen at −80° C. 5-10 μm thick sections were prepared from the tissue parts. The preparations were immunohistochemically dyed with an anti-CD31 antibody (Pecam-1) and the number of vessels in the control and treatment groups counted. Two sections of each tumor with three areas respectively were used for counting the vessels.

[3] = Gr. 3, 7.5 mg/kg copper-melphalan vs 5 mg/kg melphalan
[4] = Gr. 3, 7.5 mg/kg copper-melphalan vs 5 mg/kg melphalan, baseline
[5] = Gr. 3, 7.5 mg/kg copper-melphalan vs control (PBS)
[6] = Gr. 3, 7.5 mg/kg copper-melphalan vs control (PBS), baseline
[7] = Cu(melphalan)2 4.4 μmol/kg (2.5 mg/kg) i.p. Day 1-7
[8] = Cu(melphalan)2 8.8 μmol/kg (5 mg/kg/d) i.p. Day 1-7
[9] = dose of 2.5 mg/kg and 5 mg/kg, Day 1-7 i.p.

For `N[C@@H](Cc1ccc(N(CCCl)CCCl)cc1)C(=O)[O-].N[C@@H](Cc1ccc(N(CCCl)CCCl)cc1)C(=O)[O-].O.O.[Cu+2]` [Cu(melphalan)2], the “RTV Day 37, median in % of group 2” value [1, 3] was 45.7%, the “Vol Day 30, mean in % of group 2” value [1, 3] was 80.6% and the “Vol Day 30, median in % of group 2” value [1, 3] was 93.3%. The “Vol Day 37, mean in % of group 2” value [1, 3] was 55.1%, the “Vol Day 37, median in % of group 2” value [1, 3] was 63.4% and the “RTV Day 20, mean in % of group 2” value [1, 4] was 100.0%. The “RTV Day 20, median in % of group 2” value [1, 4] was 100.0%, the “Vol Day 20, mean in % of group 2” value [1, 4] was 89.7% and the “Vol Day 20, median in % of group 2” value [1, 4] was 113.3%. The “RTV Day 30, mean in % of group 1” value [1, 5] was 31.5%, the “RTV Day 30, median in % of group 1” value [1, 5] was 44.8% and the “RTV Day 37, mean in % of group 1” value [1, 5] was 8.2%. The “RTV Day 37, median in % of group 1” value [1, 5] was 8.0%, the “Vol Day 30, mean in % of group 1” value [1, 5] was 37.6% and the “Vol Day 30, median in % of group 1” value [1, 5] was 50.9%. For the same molecule, the “Vol Day 37, mean in % of group 1” value [1, 5] was 9.3%, the “Vol Day 37, median in % of group 1” value [1, 5] was 7.0% and the “RTV Day 20, mean in % of group 1” value [1, 6] was 100.0%. The “RTV Day 20, median in % of group 1” value [1, 6] was 100.0%, the “Vol Day 20, mean in % of group 1” value [1, 6] was 81.3% and the “Vol Day 20, median in % of group 1” value [1, 6] was 113.3%. For the same molecule, the “statistical comparison of effectiveness with melphalan at end of treatment (day 37)” value ([1]; Mann-Whitney rank sum test, mean tumor volume p=0.021, mean RTV p=0.01) was “statistically significant higher degree of effectiveness”, the chemical stability (blue solid) was “chemically stable” and the “effectiveness compared with melphalan” value (investigations of kidney cell carcinoma and lung metastases formation) was “much more effective than melphalan”. For the same molecule, the Kidney weight [2, 7] was 0.78 gr and 2.00 gr and 0.81 gr and 0.38 gr and 1.58 gr and 1.02 gr and 1.28 gr and 1.06 gr and 1.15 gr and 0.29 gr, the Lung weight [2, 7] was 0.20 gr and 0.31 gr and 0.49 gr and 1.07 gr and 0.11 gr (2×) and 0.14 gr and 0.24 gr and 0.13 gr (2×) and the “Number of intestinal lymph node metastases” value [2, 7] was 1 and 2 and 3 and 4 and 0 (5×) and 6. For the same molecule, the “Number of lung metastases” value [2, 7] was 378 and >750 (4×) and 9 and 49 and 29 and 3 and 570, the Kidney volume [2, 7] was 1.54 cm^3 and 2.2 cm^3 and 1.2 cm^3 and 0.96 cm^3 and 2.13 cm^3 and 1.53 cm^3 and 1.71 cm^3 (2×) and 1.80 cm^3 and 0.60 cm^3 and the Kidney weight [2, 8] was 0.79 gr (2×) and 0.19 gr and 1.06 gr and 0.59 gr and 0.85 gr and 0.74 gr and 0.18 gr and 0.29 gr and 0.36 gr. For the same molecule, the Lung weight [2, 8] was 0.14 gr (2×) and 0.16 gr and 0.15 gr and 0.11 gr and 0.21 gr and 0.31 gr and 0.22 gr and 0.18 gr and 0.13 gr, the “Number of intestinal lymph node metastases” value [2, 8] was 0 (8×) and 4 and 2 and the “Number of lung metastases” value [2, 8] was 11 and 4 (2×) and 162 and 0 and 680 and 16 and 610 and 92 and 7. For the same molecule, the Kidney volume [2, 8] was 1.24 cm^3 and 0.44 cm^3 and 1.5 cm^3 and 1.2 cm^3 and 1.33 cm^3 and 1.30 cm^3 and 1.12 cm^3 and 0.6 cm^3 and 0.64 cm^3 and 1.26 cm^3, the “effectiveness compared with melphalan” value ([2]; approximately quarter-equimolar dose (2.5 mg/kg, 4.4 μmol/kg vs 16.4 μmol/kg melphalan)) was “Effectiveness comparable with melphalan” and the “effectiveness compared with melphalan alone” value ([2]; approximately semi-equimolar dose (5 mg/kg, 8.8 μmol/kg vs 16.4 μmol/kg melphalan)) was “better effectiveness than melphalan alone”. The “anti-metastatic effect, intestinal lymph node metastases” value [2, 9] was “significant anti-metastatic effect”, the “anti-tumor effect (primary tumor)” value [2, 9] was “significant anti-tumor effect” and the “anti-metastatic effect, lung metastases” value ([2]; dose of 5 mg/kg, Day 1-7 i.p.) was “significant anti-metastatic effect”.
